Laboratory results published in paper PMC7734590, “Identification of a Selective RelA Inhibitor Based on DSE-FRET Screening Methods” (International Journal of Molecular Sciences, 2020).
Like-named read-outs stand apart in the source and are kept apart here.

Key:
p52 = biological target: T1, p52 (Homo sapiens, UniProt Q00653); test: DSE-FRET p52–DNA binding inhibition; type: biochemical
T1 sequence (Q00653 1-454 limits assumed): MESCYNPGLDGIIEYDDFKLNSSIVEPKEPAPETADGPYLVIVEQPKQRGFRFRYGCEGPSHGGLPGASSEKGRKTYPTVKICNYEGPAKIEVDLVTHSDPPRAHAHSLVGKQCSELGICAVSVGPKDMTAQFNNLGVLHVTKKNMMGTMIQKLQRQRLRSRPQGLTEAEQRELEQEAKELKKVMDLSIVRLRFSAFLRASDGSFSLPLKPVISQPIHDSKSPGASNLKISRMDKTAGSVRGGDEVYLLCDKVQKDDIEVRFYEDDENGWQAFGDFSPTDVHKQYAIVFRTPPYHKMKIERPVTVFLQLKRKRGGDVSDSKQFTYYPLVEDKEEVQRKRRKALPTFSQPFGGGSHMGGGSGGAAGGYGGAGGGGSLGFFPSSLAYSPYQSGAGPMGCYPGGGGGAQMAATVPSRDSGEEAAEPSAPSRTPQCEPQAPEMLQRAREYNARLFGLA

RelA = RelA (Homo sapiens, UniProt Q04206); test: DSE-FRET RelA–DNA binding inhibition; type: biochemical; design: Kinetic assay RelA Inhibition % ΔRFU(60 min-0 min) / RelA HTS % Inhibition / RelA Retest % Inhibition Run1 / RelA Retest % Inhibition Run2 / RelA Retest % Inhibition Avg. / Kinetic assay RelA % Inhibition ΔRFU(60 min-0 min): dose or concentration left out as unconfirmed
Method: Plate-based (384 scale) DNA-binding experiments were carried out with 0.1 µL of 2 mM or 1 mg/mL compound, 2 µL of 80 nM NF-D1 (consisting of NF-01F and NF-14D), 1 µL of 20 ng/µL poly dI-dC, and 6.9 µL of 3.2 pmol protein in binding buffer (10 mM 4-(2-hydroxyethyl)-1-piperazineethanesulfonic acid (HEPES)–NaOH pH 7.9, 50 mM KCl, 0.1 mM ethylenediaminetetraacetic acid (EDTA), 2.5 mM dithiothreitol (DTT), 10% glycerol, and 0.05% Nonidet P40). The plates were incubated for 30 min at room temperature, after which 10 µL of NF-D2 (consisting of NF-02 and NF-13) was added. The plates were centrifuged at 1000 rpm for 30 s, followed by shaking for 30 s using a plate shaker (Biotec). Fluorescence was measured at 528 nm, after excitation at 485 nm, using a multiplate reader (Biotec) over a period of 60 min.

[1] = HTS, known drugs, 10 µM, read-out: p52 HTS % Inhibition @ 10 µM
[2] = kinetic assay, 60 min-0 min, 10 µM, read-out: Kinetic assay @ 10 µM p52 % Inhibition ΔRFU(60 min-0 min)
[3] = retest, Run1, 10 µM, read-out: p52 Retest % Inhibition @ 10 µM Run1
[4] = retest, Run2, 10 µM, read-out: p52 Retest % Inhibition @ 10 µM Run2
[5] = retest, average of Run1 and Run2, 10 µM, read-out: p52 Retest % Inhibition @ 10 µM Avg.
[6] = HTS, known drugs, 10 µM, read-out: RelA HTS % Inhibition @ 10 µM
[7] = kinetic assay, 60 min-0 min, 10 µM, read-out: Kinetic assay @ 10 µM RelA % Inhibition ΔRFU(60 min-0 min)
[8] = retest, Run1, 10 µM, read-out: RelA Retest % Inhibition @ 10 µM Run1
[9] = retest, Run2, 10 µM, read-out: RelA Retest % Inhibition @ 10 µM Run2
[10] = retest, average of Run1 and Run2, 10 µM, read-out: RelA Retest % Inhibition @ 10 µM Avg.

RelA, sequence (Q04206 19-306 limits assumed): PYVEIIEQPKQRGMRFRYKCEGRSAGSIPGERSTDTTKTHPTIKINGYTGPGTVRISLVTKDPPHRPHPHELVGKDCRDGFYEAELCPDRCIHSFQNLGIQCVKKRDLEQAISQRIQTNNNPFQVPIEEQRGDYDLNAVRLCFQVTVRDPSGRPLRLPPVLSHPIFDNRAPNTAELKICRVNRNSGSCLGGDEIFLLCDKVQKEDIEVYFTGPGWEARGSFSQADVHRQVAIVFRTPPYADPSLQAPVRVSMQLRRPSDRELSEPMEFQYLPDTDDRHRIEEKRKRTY

Compound	inhibition at 10 µM (p52; [1]) [%]	inhibition at 10 µM (p52; [2]) [%]	inhibition at 10 µM (p52; [3]) [%]	inhibition at 10 µM (p52; [4]) [%]	inhibition at 10 µM (p52; [5]) [%]	inhibition at 10 µM (RelA; [6]) [%]	inhibition at 10 µM (RelA; [7]) [%]	inhibition at 10 µM (RelA; [8]) [%]	inhibition at 10 µM (RelA; [9]) [%]	inhibition at 10 µM (RelA; [10]) [%]	Kinetic assay p52 % Inhibition ΔRFU(60 min-0 min) (p52; kinetic assay, 60 min-0 min) [%]	Kinetic assay RelA % Inhibition ΔRFU(60 min-0 min) (RelA; kinetic assay, 60 min-0 min) [%]	other results
CC[C@@]1(O)C(=O)OCc2c1cc1n(c2=O)Cc2cc3c(CN(C)C)c(O)ccc3nc2-1 [Topotecan]	74.5	-3.67	94.6	104	99.1	91.4	-4.46	99.3	109	104			
Cc1cc(-c2ccc(/N=N/c3c(S(=O)(=O)O)cc4cc(S(=O)(=O)O)cc(N)c4c3O)c(C)c2)ccc1/N=N/c1c(S(=O)(=O)O)cc2cc(S(=O)(=O)O)cc(N)c2c1O [Trypan blue]													Hit Judgement of: p52 (p52; 1 = judged hit after retest): 1; inhibition at 5 µg/mL (p52; HTS, 5 µg/mL, NPDepo hits, read-out: p52 HTS % Inhibition @ 5 µg/mL): 2.8%; inhibition at 5 µg/mL (p52; Retest Run1, 5 µg/mL, read-out: p52 Retest % Inhibition @ 5 µg/mL Run1): 15.1%; inhibition at 5 µg/mL (p52; Retest Run2, 5 µg/mL, read-out: p52 Retest % Inhibition @ 5 µg/mL Run2): 16.4%; inhibition at 5 µg/mL (p52; Retest average of Run1 and Run2, 5 µg/mL, read-out: p52 Retest % Inhibition @ 5 µg/mL Avg.): 15.8%; inhibition at 5 µg/mL (p52; kinetic assay, 5 µg/mL, ΔRFU 60 min-0 min, read-out: Kinetic assay @ 5 µg/mL p52 Inhibition % ΔRFU(60 min-0 min)): 7%; Hit Judgement of: RelA (RelA; 1 = judged hit after retest): 1; inhibition at 5 µg/mL (RelA; HTS, 5 µg/mL, NPDepo hits, read-out: RelA HTS % Inhibition @ 5 µg/mL): 54.8%; inhibition at 5 µg/mL (RelA; Retest Run1, 5 µg/mL, read-out: RelA Retest % Inhibition @ 5 µg/mL Run1): 62%; inhibition at 5 µg/mL (RelA; Retest Run2, 5 µg/mL, read-out: RelA Retest % Inhibition @ 5 µg/mL Run2): 69%; inhibition at 5 µg/mL (RelA; Retest average of Run1 and Run2, 5 µg/mL, read-out: RelA Retest % Inhibition @ 5 µg/mL Avg.): 65.5%; inhibition at 5 µg/mL (RelA; kinetic assay, 5 µg/mL, ΔRFU 60 min-0 min, read-out: Kinetic assay @ 5 µg/mL RelA Inhibition % ΔRFU(60 min-0 min)): 26%
O=c1cc[nH]c(=O)[nH]1 [URACIL]	30.5	-1	0.245	0.9	0.6	1.1	-1.11	0.0644	0.634	0.349			
COc1cc2c(cc1OC)-c1cc3nc4ccccc4nc3n1C(C)(C)C2 [YM 90709]											-1.43	-3.67	
SN 38											-2	-0.814	
